# In the supplement of paper PMC11208160:
# Experiment: recombinant UMI read abundance after kanamycin selection (control-corrected) (log10(CPM+1)); higher = more efficient recombination; extreme values may be limits of the assay; sequences stand for … in AGTGCAGAGAAAATCGGCCAGTTTTCTCTGCCTGCAGTCCGCATGCCGTGGGACCCCTTGGGTTCTAACCTGTTGCCTAGATTTATGCAGCGGACTGCCTTTCTCCCAAAGTGATAAACCGG…AGGTTGGTTTCACT; site = the 11-nt donor
# Procedure, shortened: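 Values, expressed as log10(CPM+1), derive from recombinant UMI counts converted to CPM, averaged across replicates and scaled by control-derived factors. Plating was with IPTG (0.07 mM) plus kanamycin or unselected, two replicates each. The screen pooled donor and donor-binding-loop pairs for the IS621 bridge recombinase in Escherichia coli.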
# 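Note: IS621 bridge recombinase in Escherichia coli cells against a fixed T5 target plasmid.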
row,Sequence,recombinant UMI read abundance (log10)
1,GAATGGTCATGGACCGGTTTTCCCGGTAATCCGTATTTGCA (site GAATGGTCTTG),2.38
2,GAATTCCCATGGACCGGTTTTCCCGGTAATCCGTATTTGTA (site GAATTCCCTTA),0.666
3,GAATTGACATGGACCGGTTTTCCCGGTAATCCGTATTTGAT (site GAATTGACTAT),1.37
4,GAATTGCCATGGACCGGTTTTCCCGGTAATCCGTATTTGCA (site GAATAGCCTTG),0
5,GAATTGCCATGGACCGGTTTTCCCGGTAATCCGTATTTGCA (site GAATCGCCTTG),0
6,GAATTGCCATGGACCGGTTTTCCCGGTAATCCGTATTTGCA (site GAATGGCCTTG),0.696
7,GAATTGCCATGGACCGGTTTTCCCGGTAATCCGTATTTGCA (site GAATTGCCTTG),0
8,GACAAATCATGGACCGGTTTTCCCGGTAATCCGTATTTGGT (site GACAAAACTAC),0
9,GACAAATCATGGACCGGTTTTCCCGGTAATCCGTATTTGGT (site GACAAACCTAC),0
10,GACAAATCATGGACCGGTTTTCCCGGTAATCCGTATTTGGT (site GACAAAGCTAC),0.224
11,GACAAATCATGGACCGGTTTTCCCGGTAATCCGTATTTGGT (site GACAAATCTAC),0.59
12,GACAATCCATGGACCGGTTTTCCCGGTAATCCGTATTTGGT (site GACAAACCTAC),0
13,GACAATCCATGGACCGGTTTTCCCGGTAATCCGTATTTGGT (site GACAACCCTAC),0.00483
14,GACAATCCATGGACCGGTTTTCCCGGTAATCCGTATTTGGT (site GACAAGCCTAC),0.0115
15,GACAATCCATGGACCGGTTTTCCCGGTAATCCGTATTTGGT (site GACAATCCTAC),0.0195
16,GACACGACATGGACCGGTTTTCCCGGTAATCCGTATTTGGG (site GACACGACTCC),0.173
17,GACAGGGCATGGACCGGTTTTCCCGGTAATCCGTATTTGAT (site GACAGGGCTAT),1.89
18,GACATCCCATGGACCGGTTTTCCCGGTAATCCGTATTTGAA (site GACATCCCTTT),0.475
19,GACCAACCATGGACCGGTTTTCCCGGTAATCCGTATTTGGT (site GACAAACCTAC),0
20,GACCAACCATGGACCGGTTTTCCCGGTAATCCGTATTTGGT (site GACCAACCTAC),0.0426
21,GACCAACCATGGACCGGTTTTCCCGGTAATCCGTATTTGGT (site GACGAACCTAC),0
22,GACCAACCATGGACCGGTTTTCCCGGTAATCCGTATTTGGT (site GACTAACCTAC),0.00842
23,GACCCATCATGGACCGGTTTTCCCGGTAATCCGTATTTGAG (site GACCCATCTCT),2.43
24,GACCGTCCATGGACCGGTTTTCCCGGTAATCCGTATTTGAG (site GACCGTCCTCT),0.281
25,GACCTACCATGGACCGGTTTTCCCGGTAATCCGTATTTGTC (site GACCTACCTGA),0

row,Sequence,recombinant UMI read abundance (log10)
1,GACCTCACATGGACCGGTTTTCCCGGTAATCCGTATTTGGG (site GACCTCACTCC),0.0144
2,GACCTTGCATGGACCGGTTTTCCCGGTAATCCGTATTTGCA (site GACCTTGCTTG),0
3,GACGAACCATGGACCGGTTTTCCCGGTAATCCGTATTTGAG (site GACGAACCTCT),0
4,GACGAACCATGGACCGGTTTTCCCGGTAATCCGTATTTGGT (site GACAAACCTAC),0
5,GACGAACCATGGACCGGTTTTCCCGGTAATCCGTATTTGGT (site GACCAACCTAC),0.0777
6,GACGAACCATGGACCGGTTTTCCCGGTAATCCGTATTTGGT (site GACGAACCTAC),0
7,GACGAACCATGGACCGGTTTTCCCGGTAATCCGTATTTGGT (site GACTAACCTAC),0.0149
8,GACGCAACATGGACCGGTTTTCCCGGTAATCCGTATTTGTA (site GACGCAACTTA),1.34
9,GACGCCGCATGGACCGGTTTTCCCGGTAATCCGTATTTGGC (site GACGCCGCTGC),2.91
10,GACGTCTCATGGACCGGTTTTCCCGGTAATCCGTATTTGGA (site GACGTCTCTTC),1.94
11,GACTATACATGGACCGGTTTTCCCGGTAATCCGTATTTGGG (site GACTATACTCC),0.588
12,GACTCGACATGGACCGGTTTTCCCGGTAATCCGTATTTGCA (site GACTCGACTTG),1.84
13,GACTCTGCATGGACCGGTTTTCCCGGTAATCCGTATTTGCT (site GACTCTGCTAG),1.3
14,GACTGACCATGGACCGGTTTTCCCGGTAATCCGTATTTGGC (site GACTGACCTGC),0
15,GACTGAGCATGGACCGGTTTTCCCGGTAATCCGTATTTGTC (site GACTGAGCTGA),2.29
16,GACTGCACATGGACCGGTTTTCCCGGTAATCCGTATTTGGT (site GACTGCACTAC),0.857
17,GACTTAGCATGGACCGGTTTTCCCGGTAATCCGTATTTGGT (site GACTTAGCTAC),0.191
18,GAGAAACCATGGACCGGTTTTCCCGGTAATCCGTATTTGGT (site GAAAAACCTAC),0
19,GAGAAACCATGGACCGGTTTTCCCGGTAATCCGTATTTGGT (site GACAAACCTAC),0
20,GAGAAACCATGGACCGGTTTTCCCGGTAATCCGTATTTGGT (site GAGAAACCTAC),0
21,GAGAAACCATGGACCGGTTTTCCCGGTAATCCGTATTTGGT (site GATAAACCTAC),0
22,GAGAACCCATGGACCGGTTTTCCCGGTAATCCGTATTTGTC (site GAGAACCCTGA),0
23,GAGAAGCCATGGACCGGTTTTCCCGGTAATCCGTATTTGAC (site GAGAAGCCTGT),0
24,GAGACAACATGGACCGGTTTTCCCGGTAATCCGTATTTGAA (site GAGACAACTTT),0.852
25,GAGACGACATGGACCGGTTTTCCCGGTAATCCGTATTTGGG (site GAGACGACTCC),0.501

row,Sequence,recombinant UMI read abundance (log10)
1,GAGACGACATGGACCGGTTTTCCCGGTAATCCGTATTTGTC (site GAGACGACTGA),1.94
2,GAGACTACATGGACCGGTTTTCCCGGTAATCCGTATTTGAA (site GAGACTACTTT),0.551
3,GAGATAACATGGACCGGTTTTCCCGGTAATCCGTATTTGCG (site GAGATAACTCG),1.56
4,GAGATCACATGGACCGGTTTTCCCGGTAATCCGTATTTGGT (site GAGATCACTAC),1.37
5,GAGATGACATGGACCGGTTTTCCCGGTAATCCGTATTTGCA (site GAGATGACTTG),2.52
6,GAGCAATCATGGACCGGTTTTCCCGGTAATCCGTATTTGTT (site GAGCAATCTAA),2.77
7,GAGCATGCATGGACCGGTTTTCCCGGTAATCCGTATTTGGT (site GAGCATGCTAC),1.5
8,GAGCATGCATGGACCGGTTTTCCCGGTAATCCGTATTTGGT (site GCGCATGCTAC),0.474
9,GAGCATGCATGGACCGGTTTTCCCGGTAATCCGTATTTGGT (site GGGCATGCTAC),0.422
10,GAGCATGCATGGACCGGTTTTCCCGGTAATCCGTATTTGGT (site GTGCATGCTAC),0.162
11,GAGCCGGCATGGACCGGTTTTCCCGGTAATCCGTATTTGGT (site GAGCCGGCTAC),0.57
12,GAGCCTGCATGGACCGGTTTTCCCGGTAATCCGTATTTGGT (site GAGCCTGCTAC),0.482
13,GAGCGTTCATGGACCGGTTTTCCCGGTAATCCGTATTTGCG (site GAGCGTTCTCG),1.82
14,GAGCTAACATGGACCGGTTTTCCCGGTAATCCGTATTTGAT (site GAGCTAACTAT),2.46
15,GAGCTAACATGGACCGGTTTTCCCGGTAATCCGTATTTGAT (site GAGCTCACTAT),0.0205
16,GAGCTAACATGGACCGGTTTTCCCGGTAATCCGTATTTGAT (site GAGCTGACTAT),0.034
17,GAGCTAACATGGACCGGTTTTCCCGGTAATCCGTATTTGAT (site GAGCTTACTAT),0.00927
18,GAGCTCACATGGACCGGTTTTCCCGGTAATCCGTATTTGCT (site GAGCTCACTAA),1.28
19,GAGCTCACATGGACCGGTTTTCCCGGTAATCCGTATTTGCT (site GAGCTCACTAC),0.00315
20,GAGCTCACATGGACCGGTTTTCCCGGTAATCCGTATTTGCT (site GAGCTCACTAG),2.24
21,GAGCTCACATGGACCGGTTTTCCCGGTAATCCGTATTTGCT (site GAGCTCACTAT),1.14
22,GAGCTGACATGGACCGGTTTTCCCGGTAATCCGTATTTGAT (site GAGCTAACTAT),2.08
23,GAGCTGACATGGACCGGTTTTCCCGGTAATCCGTATTTGAT (site GAGCTCACTAT),0.0113
24,GAGCTGACATGGACCGGTTTTCCCGGTAATCCGTATTTGAT (site GAGCTGACTAT),2.09
25,GAGCTGACATGGACCGGTTTTCCCGGTAATCCGTATTTGAT (site GAGCTTACTAT),0.154
